Values joined by “and” are separate entries in the source; they are usually repeats but may differ in a detail not shown here. Equal entries are not always repeated. Where two headings read alike, the source gives them in different places.
Assays:
Assay type in all cases: cell-based
Cordana musae = assay: in vitro-Test with Cordana musae (microtiter growth inhibition); conditions: single substance
Protocol: (§1) The degree of efficacy expressed in % is denoted: 0% means an efficacy, which corresponds to that of the control, while an efficacy of 100% means that no disease is observed.
(§2) If the actual fungicidal activity exceeds the calculated value, then the activity of the combination is super-additive, i.e. a synergistic effect exists. In this case, the efficacy, which was actually observed, must be greater than the value for the expected efficacy (E), that was calculated from the abovementioned formula.
(§3) Example: In Vitro-Test with Fungal Microorganisms
(§4) Wells of 96-well microtiter plates are filled with 10 μl of a preparation of test compound or compound combination in methanol+emulsifier alkylaryl-polyglycol-ether. Thereafter, the solvent is evaporated in a hood. At the next step, 100 μl of liquid potato dextrose medium is given into each well, that has been amended with an appropriate concentration of spores or mycelium suspension of the test fungus.
(§5) With the aid of a photometer, the extinction in all wells is measured at the wavelength of 620 nm.
(§6) The microtiter plates are incubated at 20° C. and 85% relative humidity. The inhibition of growth is determined again photometrically 3-5 days after the application. Efficacy is calculated in relation to the untreated control, 0% efficacy means fungal growth as high as in untreated control while 100% efficacy means no fungal growth is measured.

Fusarium culmorum = assay: in vitro-Test with Fusarium culmorum (microtiter growth inhibition)
Protocol: as §1, §2, §3, §4, §5, §6

Cercospora beticola = assay: in vitro-Test with Cercospora beticola (microtiter growth inhibition); conditions: alone
Protocol: as §1, §2, §3, §4, §5, §6

Alternaria alternate = assay: in vitro-Test with Alternaria alternate (microtiter growth inhibition); conditions: for inhibition of growth at 20 ppm / inhibition of growth at 0.8 ppm / inhibition of growth at 0.008 ppm / inhibition of growth at 0.04 ppm / inhibition of growth at 1 ppm / inhibition of growth at 0.2 ppm / inhibition of growth at 4 ppm: Alternaria
Protocol: as §1, §2, §3, §4, §5, §6

Diaporthe citri = assay: in vitro-Test with Diaporthe citri (microtiter growth inhibition); conditions: applied alone
Protocol: as §2, §3, §4, §5, §6

[1] = system: Ustilago segetum var. avenae; assay: in vitro-Test with Ustilago segetum var. avenae (microtiter growth inhibition); conditions: single compound
Protocol: as §1, §2, §3, §4, §5, §6

Botrytis cinerea = assay: in vitro-Test with Botrytis cinerea (microtiter growth inhibition); conditions: applied alone
Protocol: as §1, §2, §3, §4, §5, §6

[2] = Neocordana musae, 0.8 ppm, read-out: Efficacy
[3] = Neocordana musae, read-out: Efficacy
[4] = Fusarium culmorum, read-out: Efficacy
[5] = Cercospora beticola, read-out: Efficacy %
[6] = applied alone, read-out: Efficacy
[7] = Diaporthe citri, 0.04 ppm, read-out: Efficacy
[8] = Diaporthe citri, 1.0 ppm, read-out: Efficacy
[9] = Cercospora beticola, 0.008 ppm, read-out: Efficacy %
[10] = Cercospora beticola, 1.0 ppm, read-out: Efficacy %
[11] = Fusarium culmorum, 0.04 ppm, read-out: Efficacy
[12] = Fusarium culmorum, 1.0 ppm, read-out: Efficacy
[13] = 0.008 ppm, alone, read-out: Efficacy %
[14] = 0.04 ppm, alone, read-out: Efficacy %
[15] = 1.0 ppm, alone, read-out: Efficacy %
[16] = applied alone, 0.008 ppm, read-out: Efficacy
[17] = applied alone, 0.2 ppm, read-out: Efficacy
[18] = Diaporthe citri, read-out: Efficacy
[19] = 4 ppm, alone, read-out: Efficacy %

SMILES: COc1cc(C)c(C(=O)c2c(OC)ccc(Br)c2C)c(OC)c1OC [Compound 15.016, metrafenone]
- inhibition of growth at 0.8 ppm (Cordana musae; [2]): 0%
- inhibition of growth at 20 ppm (Cordana musae; [3]): 22%
- inhibition of growth at 0.8 ppm (Fusarium culmorum; [4]): 0%
- inhibition of growth at 4 ppm (Fusarium culmorum; [4]): 0%
- inhibition of growth at 20 ppm (Fusarium culmorum; [4]): 0%

SMILES: O=C1C2CC=CCC2C(=O)N1SC(Cl)(Cl)Cl (centres unmarked) [captan]
- inhibition of growth at 4 ppm (Cordana musae; [3]): 2%
- Efficacy (Cordana musae; 0.8 ppm): 0%
- inhibition of growth at 4 ppm (Cercospora beticola; [5]): 73%
- inhibition of growth at 0.8 ppm (Fusarium culmorum; [4]): 2%
- inhibition of growth at 20 ppm (Fusarium culmorum; [4]): 5%
- inhibition of growth at 20 ppm (Alternaria alternate; alone, read-out: Efficacy %): 83%
- inhibition of growth at 0.8 ppm (Alternaria alternate; [6]): 10%
- inhibition of growth at 20 ppm (Alternaria alternate; [6]): 100%
- Efficacy (Alternaria alternate; applied alone, 4 ppm): 100%

SMILES: CC1COC(Cn2cncn2)(c2ccc(Oc3ccc(Cl)cc3)cc2Cl)O1 (centres unmarked) [difenoconazole]
- inhibition of growth at 0.04 ppm (Diaporthe citri; [7]): 13%
- inhibition of growth at 1 ppm (Diaporthe citri; [8]): 88%
- Efficacy (Diaporthe citri; 0.008 ppm): 0%
- inhibition of growth at 0.008 ppm (Cordana musae; Neocordana musae, 0.008 ppm, read-out: Efficacy): 0%
- inhibition of growth at 1 ppm (Cordana musae; Neocordana musae, 1.0 ppm, read-out: Efficacy): 42%
- inhibition of growth at 0.04 ppm ([1]; 0.04 ppm, read-out: Efficacy %): 4%
- inhibition of growth at 0.2 ppm ([1]; 0.2 ppm, read-out: Efficacy %): 70%
- inhibition of growth at 1 ppm ([1]; 1.0 ppm, read-out: Efficacy %): 100%
- inhibition of growth at 0.008 ppm (Cercospora beticola; [9]): 9%
- inhibition of growth at 0.2 ppm (Cercospora beticola; [5]): 68%
- inhibition of growth at 1 ppm (Cercospora beticola; [10]): 100%
- inhibition of growth at 0.008 ppm (Fusarium culmorum; Fusarium culmorum, 0.008 ppm, read-out: Efficacy): 3%
- inhibition of growth at 0.04 ppm (Fusarium culmorum; [11]): 8%
- inhibition of growth at 0.2 ppm (Fusarium culmorum; Fusarium culmorum, 0.2 ppm, read-out: Efficacy): 0%
- inhibition of growth at 1 ppm (Fusarium culmorum; [12]): 0%
- inhibition of growth at 0.008 ppm (Alternaria alternate; [13]): 8%
- inhibition of growth at 0.04 ppm (Alternaria alternate; [14]): 4%
- inhibition of growth at 1 ppm (Alternaria alternate; [15]): 98%
- inhibition of growth at 0.008 ppm (Alternaria alternate; [16]): 11%
- inhibition of growth at 0.2 ppm (Alternaria alternate; [17]): 3%

SMILES: N#Cc1sc2c(=O)c3ccccc3c(=O)c=2sc1C#N [dithianon]
- inhibition of growth at 0.8 ppm (Diaporthe citri; [18]): 34%
- inhibition of growth at 4 ppm (Diaporthe citri; [18]): 98%
- inhibition of growth at 20 ppm (Diaporthe citri; [18]): 97%
- inhibition of growth at 0.8 ppm (Cordana musae; [2]): 9%
- inhibition of growth at 4 ppm (Cordana musae; [3]): 99%
- inhibition of growth at 20 ppm (Cordana musae; [3]): 98%
- inhibition of growth at 4 ppm (Cercospora beticola; [5]): 99%
- inhibition of growth at 20 ppm (Cercospora beticola; [5]): 98%
- inhibition of growth at 0.8 ppm (Fusarium culmorum; [4]): 0%
- inhibition of growth at 4 ppm (Fusarium culmorum; [4]): 39%
- inhibition of growth at 20 ppm (Fusarium culmorum; [4]): 100%
- inhibition of growth at 0.8 ppm (Alternaria alternate; alone, read-out: Efficacy %): 0%
- inhibition of growth at 4 ppm (Alternaria alternate; [19]): 71%
- inhibition of growth at 20 ppm (Alternaria alternate; alone, read-out: Efficacy %): 100%

SMILES: COc1ccnc(C(=O)N[C@H]2COC(=O)[C@H](Cc3ccccc3)[C@@H](OC(=O)C(C)C)[C@H](C)OC2=O)c1OCOC(=O)C(C)C [fenpicoxamid]
- Efficacy (Diaporthe citri; 0.04 ppm): 0%
- Efficacy (Diaporthe citri; 0.2 ppm): 5% and 0%
- Efficacy (Diaporthe citri; 1.0 ppm): 87% and 73% and 75%
- Efficacy (Diaporthe citri; 5.0 ppm): 94% and 93% and 90%
- Efficacy (Cordana musae; 1.0 ppm): 50%
- Efficacy (Cordana musae; 5.0 ppm): 74%
- Efficacy % (Cercospora beticola; 1.0 ppm): 74% and 58% and 42%
- Efficacy % (Cercospora beticola; 5.0 ppm): 86% and 78%
- Efficacy (Fusarium culmorum; 0.04 ppm): 0%
- Efficacy (Fusarium culmorum; 0.2 ppm): 0%
- Efficacy (Fusarium culmorum; 1.0 ppm): 0%
- Efficacy (Fusarium culmorum; 5.0 ppm): 0%
- Efficacy % (Alternaria alternate; 0.2 ppm, alone): 10% and 4%
- Efficacy % (Alternaria alternate; 5.0 ppm, alone): 80% and 81%
- Efficacy (Alternaria alternate; applied alone, 5.0 ppm): 64%

SMILES: O=C(NCCc1ncc(C(F)(F)F)cc1Cl)c1ccccc1C(F)(F)F [fluopyram]
- inhibition of growth at 4 ppm (Diaporthe citri; [18]): 0%
- inhibition of growth at 20 ppm (Diaporthe citri; [18]): 26%
- inhibition of growth at 0.8 ppm (Cordana musae; [2]): 0%
- inhibition of growth at 4 ppm (Cordana musae; [3]): 5%
- inhibition of growth at 20 ppm (Cordana musae; [3]): 20%
- inhibition of growth at 20 ppm (Cercospora beticola; [5]): 17%
- inhibition of growth at 0.8 ppm (Fusarium culmorum; [4]): 1%
- inhibition of growth at 4 ppm (Fusarium culmorum; [4]): 0%
- inhibition of growth at 20 ppm (Fusarium culmorum; [4]): 3%
- inhibition of growth at 0.8 ppm (Alternaria alternate; alone, read-out: Efficacy %): 77%
- inhibition of growth at 4 ppm (Alternaria alternate; [19]): 94%
- inhibition of growth at 0.8 ppm (Alternaria alternate; [6]): 81%
- inhibition of growth at 4 ppm (Alternaria alternate; applied alone, 4 ppm, read-out: Efficacy): 85%
- inhibition of growth at 20 ppm (Alternaria alternate; [6]): 99%

SMILES: CC(C)c1ccc(Cl)cc1CN(C(=O)c1c(C(F)F)nn(C)c1F)C1CC1 [isoflucypram]
- Efficacy (Diaporthe citri; 0.008 ppm): 0%
- Efficacy (Diaporthe citri; 0.04 ppm): 0%
- Efficacy (Diaporthe citri; 0.2 ppm): 0%
- Efficacy (Diaporthe citri; 1.0 ppm): 49% and 41%
- Efficacy (Cordana musae; 0.008 ppm): 0%
- Efficacy (Cordana musae; 0.04 ppm): 10% and 12%
- Efficacy (Cordana musae; 0.2 ppm): 0%
- Efficacy (Cordana musae; 1.0 ppm): 18% and 8%
- Efficacy % ([1]; 0.008 ppm): 0%
- Efficacy % ([1]; 0.04 ppm): 45%
- Efficacy % ([1]; 0.2 ppm): 100%
- Efficacy % ([1]; 1.0 ppm): 100%
- Efficacy % (Cercospora beticola; 0.008 ppm): 11%
- Efficacy % (Cercospora beticola; 0.04 ppm): 16%
- Efficacy % (Cercospora beticola; 1.0 ppm): 35% and 39%
- Efficacy (Fusarium culmorum; 0.008 ppm): 0%
- Efficacy (Fusarium culmorum; 0.04 ppm): 0%
- Efficacy (Fusarium culmorum; 0.2 ppm): 0%
- Efficacy (Fusarium culmorum; 1.0 ppm): 0%
- Efficacy % (Alternaria alternate; 0.008 ppm, alone): 44% and 41%
- Efficacy % (Alternaria alternate; 0.04 ppm, alone): 69% and 76%
- Efficacy % (Alternaria alternate; 0.2 ppm, alone): 85% and 81%
- Efficacy % (Alternaria alternate; 1.0 ppm, alone): 74%
- Efficacy (Alternaria alternate; applied alone, 0.008 ppm): 53%
- Efficacy (Alternaria alternate; applied alone, 0.04 ppm): 71%
- Efficacy (Alternaria alternate; applied alone, 0.2 ppm): 73%

SMILES: CCCN(CC)CC1COC2(CCC(C(C)(C)C)CC2)O1 (centres unmarked) [spiroxamine]
- Efficacy (Botrytis cinerea; 0.8 ppm): 5%
- Efficacy (Botrytis cinerea; 4 ppm): 4%
- inhibition of growth at 0.8 ppm (Diaporthe citri; [18]): 0%
- inhibition of growth at 4 ppm (Diaporthe citri; [18]): 0%
- inhibition of growth at 20 ppm (Diaporthe citri; [18]): 6%
- inhibition of growth at 4 ppm (Cordana musae; [3]): 0%
- inhibition of growth at 20 ppm (Cordana musae; [3]): 4%
- inhibition of growth at 0.8 ppm ([1]; 0.8 ppm, read-out: Efficacy %): 0%
- inhibition of growth at 4 ppm ([1]; 4 ppm, read-out: Efficacy %): 0%
- inhibition of growth at 20 ppm ([1]; 20 ppm, read-out: Efficacy %): 87%
- inhibition of growth at 0.8 ppm (Fusarium culmorum; [4]): 0%
- inhibition of growth at 4 ppm (Fusarium culmorum; [4]): 0%
- inhibition of growth at 20 ppm (Fusarium culmorum; [4]): 2%
- inhibition of growth at 0.8 ppm (Alternaria alternate; alone, read-out: Efficacy %): 1%
- inhibition of growth at 4 ppm (Alternaria alternate; [19]): 1%

SMILES: CC(C)(C)C(O)(CCc1ccc(Cl)cc1)Cn1cncn1 (centres unmarked) [tebuconazole]
- Efficacy (Botrytis cinerea; 0.008 ppm): 0%
- Efficacy (Botrytis cinerea; 0.04 ppm): 8%
- Efficacy (Botrytis cinerea; 0.2 ppm): 20%
- Efficacy (Botrytis cinerea; 1.0 ppm): 100%
- inhibition of growth at 0.04 ppm (Diaporthe citri; [7]): 47%
- inhibition of growth at 0.2 ppm (Diaporthe citri; Diaporthe citri, 0.2 ppm, read-out: Efficacy): 96%
- inhibition of growth at 1 ppm (Diaporthe citri; [8]): 98%
- inhibition of growth at 0.2 ppm (Cordana musae; Neocordana musae, 0.2 ppm, read-out: Efficacy): 2%
- inhibition of growth at 0.008 ppm (Cercospora beticola; [9]): 0%
- inhibition of growth at 0.04 ppm (Cercospora beticola; Cercospora beticola, 0.04 ppm, read-out: Efficacy %): 22%
- inhibition of growth at 0.2 ppm (Cercospora beticola; [5]): 83%
- inhibition of growth at 1 ppm (Cercospora beticola; [10]): 100%
- inhibition of growth at 0.04 ppm (Fusarium culmorum; [11]): 0%
- inhibition of growth at 1 ppm (Fusarium culmorum; [12]): 99%
- inhibition of growth at 0.008 ppm (Alternaria alternate; [13]): 11%
- inhibition of growth at 0.04 ppm (Alternaria alternate; [14]): 9%
- inhibition of growth at 0.2 ppm (Alternaria alternate; 0.2 ppm, alone, read-out: Efficacy %): 32%
- inhibition of growth at 1 ppm (Alternaria alternate; [15]): 98%
- inhibition of growth at 0.008 ppm (Alternaria alternate; [16]): 0%
- inhibition of growth at 0.04 ppm (Alternaria alternate; applied alone, 0.04 ppm, read-out: Efficacy): 14%
- inhibition of growth at 0.2 ppm (Alternaria alternate; [17]): 48%
- inhibition of growth at 1 ppm (Alternaria alternate; applied alone, 1.0 ppm, read-out: Efficacy): 99%

From US20230165252A1, “ACTIVE COMPOUND COMBINATIONS” (Bayer Aktiengesellschaft, priority 2020, published 2023)
